Source: patent US12077534B2, “Aza-heterobicyclic inhibitors of MAT2A and methods of use for treating cancer” (Les Laboratoires Servier SAS, priority 2018, dated 2024)

Key:
HCT116 MTAP+/+ = assay: Inhibition of cellular proliferation (Cell Titer Glo), HCT116 MTAP+/+; type: cell-based; conditions: Homo sapiens, HCT-116, 96 h, 4 days, read-out: 4 Day Relative Growth Inhibition (MTAP +/+)
Protocol: (§1) Test compound impact on cancer cell growth was assessed by treating cancer cells with compound for 4 days and then measuring proliferation using an ATP-based cell proliferation readout (Cell Titer Glo, Promega Corporation).
(§2) In a typical assay an isogenic pair of HCT116 human colon carcinoma cell lines which vary only in MTAP deletion status (HCT116 MTAP+/+ and HCT116 MTAP−/−) were plated in 96-well dishes at appropriate cell density. Following 24 hours, cells were then treated with the candidate MAT2A inhibitor. Prior to addition to cells, the compound was first serially diluted in 100% DMSO, typically as a 3-fold serial dilution starting at 500× top dose with 10 dose points including DMSO only control. Compound was then transferred to a working stock plate in cell culture media by adding 5 μL of compound in DMSO to 495 μL of cell culture media. This working stock was then added to cells via a further 5-fold dilution, by adding 25 μL of working stock to 100 μL of cells in culture media. Following compound addition, cells were incubated at 37° C./5% CO2 for 4 days.
(§3) To measure inhibition of cellular proliferation, cells were allowed to equilibrate to room temperature for 30 minutes, and were then treated with 125 μL of Cell Titer Glo reagent. The plate was then covered with aluminum foil and shaken for 15 minutes to ensure complete mixing and full cell lysis. Luminescent signal was then measured using a plate-based luminometer Veritas version 1.9.2 using ATP standard curve to confirm assay reproducibility from run to run. This luminescence measure was converted to a proliferation index by subtracting from each data point the ATP luminescence signal measured from a bank (no cells) well and dividing by the ATP luminescence signal measured in 0.2% DMSO control well adjusted for signal in blank well. Compound activity was then represented as a percentage change in proliferation relative to a within-plate DMSO control against log 10 of compound concentration in molar (M) units.

[1] = system: MAT2A activity (SAM) in HCT116 cells with deleted MTAP gene; assay: Cellular assay of target engagement (SAM) by LC-MS/MS; type: cell-based; conditions: Homo sapiens, HCT-116; HCT116 MTAP −/−, 72 hrs; read-out: Cell 72 h SAM Inhibition (MTAP −/−)
Protocol: Measurement of MAT2A activity in cells was made by direct quantitation of the abundance of the product of its enzymatic activity, SAM. Cancer cells were treated with candidate MAT2A inhibitors for a suitable incubation period, and the cells were then lysed using a reagent which quenched any further enzyme activity. Soluble metabolites including SAM were collected and SAM itself was directly measured from the lysate using quantitative LC-MS/MS.
A typical assay was performed using an HCT116 human colon carcinoma cell line which was genetically engineered to delete the MTAP gene (commercially available from Horizon Discovery). This cell line was utilized because it was determined that loss of the MTAP gene predicts sensitivity to MAT2A inhibitors. Cells were plated in 96-well dishes at appropriate cell density. Following 24 hours, cells were then treated with the candidate MAT2A inhibitor. Prior to addition to cells, the compound was first serially diluted in 100% DMSO, typically as a 3-fold serial dilution starting at 500× top dose with 10 dose points including DMSO only control. Compound was then transferred to a working stock plate in cell culture media by adding 5 μL of compound in DMSO to 495 μL of cell culture media. This working stock was then added to cells via a further 5-fold dilution, by adding 25 μL of working stock to 100 μL of cells in culture media. Following compound addition, cells were incubated at 37° C./5% CO2 for 72 hrs.
To quantitate SAM levels following compound treatment, cells were gently washed once in ammonium carbonate buffer (75 mM at pH 7.4), placed on dry ice, and lysed with metabolite extraction buffer (80% cold methanol and 20% water (v/v) with acetic acid at 1M final concentration with 200 ng/mL deuterated d3-SAM as internal control). Following centrifugation at 4° C. at 3,200 rpm for 30 minutes, the supernatant was collected and stored at −80° C. until analysis by Liquid Chromatography with tandem Mass Spectrometry (LC-MS/MS). LC-MS/MS analysis was performed using an API6500 Mass Spectrometer (Sciex, Framingham, MA, USA) operating in positive ion spray mode and equipped with a Waters UPLC Acquity (Waters, Milford, MA, USA) BEH Amide column. Multiple Reaction Monitoring data was acquired for SAM and the d3-SAM standard, using a mass transition pair at m/z 399.2→250.1 and 402.2→250.1, respectively. In a typical LC-MS/MS analysis, the initial flow rate was 0.5 ml/min of 25% mobile phase A (acetonitrile and water at 5:95 (v/v) with 1% formic acid and 10 mM ammonium acetate) and 75% mobile phase B (acetonitrile and water at 95:5 (v/v) with 1% formic acid and 10 mM ammonium acetate), 0.2-0.5 minutes with 75%-35% mobile phase B, 25%-65% mobile phase A, at 0.5 min 65% mobile phase A and 35% mobile phase B, 1.0-1.1 minutes with 35%-75% mobile phase B, 65%-25% mobile phase A, at 1.1 min 25% mobile phase A and 75% mobile phase B with a total run time of 1.5 minutes.

MAT2A homodimer = target: T1, MAT2A homodimer (Homo sapiens, UniProt P31153); assay: MAT2A biochemical assay (phosphate release, PiColorLock Gold); conditions: recombinant MAT2A homodimer, 60 min pre-incubation, 25° C.; read-out: Enzyme Inhibition
T1 construct: inferred from Ni sepharose purification and imidazole elution; made in house; host or cells: SF9 insect cells, recombinant baculovirus (Bac to Bac, pFASTBAC1)
Protocol: Mat2A protein was expressed by recombinant baculovirus in SF9 infected cells using the Bac to Bac system cloned into the pFASTBAC1 vector (Invitrogen, Carlsbad, CA). Recombinant MAT2A was isolated from the cell lysate of 150 g of infected cells using HP Ni sepharose column chromatography. Recombinant MAT2A homodimer was eluted with 250 and 500 mM imidazole, and fractions containing MAT2A were identified by sodium dodecyl sulfate polyacrylamide gel electrophoresis and pooled.
For determination of the inhibitory potency of compounds against the MAT2A homodimer, protein was diluted to 4 μg/mL in assay buffer (50 mM Tris, pH 8.0, 50 mM KCl, 15 mM MgCl2, 0.3 mM EDTA, 0.005% [w/v] bovine serum albumin [BSA]). Test compound was prepared in 100% dimethyl sulfoxide (DMSO) at 50× the desired final concentration. A 1 μL volume of compound dilution was added to 40 μL of enzyme dilution and the mixture was allowed to equilibrate for 60 minutes at 25° C. The enzymatic assay was initiated by the addition of 10 μL of substrate mix (500 μM ATP, pH 7.0, 400 μM L-methionine in 1× assay buffer), and the mixture was incubated for a further 60 minutes at 25° C. The reaction was halted and the liberated phosphate released by the enzyme in stoichiometric amounts by the production of S-adenosyl methionine (SAM) was measured using the PiColorLock Gold kit (Innova Biosciences, UK). Absolute product amounts were determined by comparison to a standard curve of potassium phosphate buffer, pH 8.0.

HCT116 MTAP−/− = assay: Inhibition of cellular proliferation (Cell Titer Glo), HCT116 MTAP-/-; type: cell-based; conditions: Homo sapiens, HCT-116, 96 h, 4 days, read-out: 4 Day Relative Growth Inhibition (MTAP −/−)
Protocol: as §1, §2, §3

T1 sequence (P31153 whole entry): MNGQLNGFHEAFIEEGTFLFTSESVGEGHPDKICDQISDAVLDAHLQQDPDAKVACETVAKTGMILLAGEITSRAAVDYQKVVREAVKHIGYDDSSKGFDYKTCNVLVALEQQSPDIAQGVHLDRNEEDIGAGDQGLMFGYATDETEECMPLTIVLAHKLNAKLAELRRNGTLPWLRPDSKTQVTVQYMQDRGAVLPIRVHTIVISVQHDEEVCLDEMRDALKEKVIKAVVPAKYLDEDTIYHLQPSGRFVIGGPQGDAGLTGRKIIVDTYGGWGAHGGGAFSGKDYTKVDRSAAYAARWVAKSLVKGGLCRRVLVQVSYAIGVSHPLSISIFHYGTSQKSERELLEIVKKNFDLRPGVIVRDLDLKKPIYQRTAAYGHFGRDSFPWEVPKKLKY

Row | IC50 (HCT116 MTAP+/+) | IC50 [1] | IC50 (MAT2A homodimer) | IC50 (HCT116 MTAP−/−) | Compound
1 | ≥ 1000 nM | < 100 nM | < 100 nM | 100 to 1000 nM | Cn1cc2cc(-n3nc4ccc(OCC5CC5)nc4c(-c4ccc(Cl)cc4)c3=O)ccc2n1 [Example 101, 4-(4-chlorophenyl)-6-(cyclopropylmethoxy)-2-(2-methyl-2H-indazol-5-yl)pyrido[3,2-c]pyridazin-3(2H)-one]
2 | ≥ 1000 nM | < 100 nM | < 100 nM | < 100 nM | CCNc1ccc2nn(-c3ccc4nn(C)cc4c3)c(=O)c(-c3ccc(Cl)cc3)c2n1 [Example 103, 4-(4-chlorophenyl)-6-(ethylamino)-2-(2-methyl-2H-indazol-5-yl)pyrido[3,2-c]pyridazin-3(2H)-one]
3 | ≥ 1000 nM | 100 to 1000 nM | < 100 nM | 100 to 1000 nM | CCOc1ccc2nn(-c3ccc4nn(C)cc4c3)c(=O)c(-c3ccc(OC(F)(F)F)cc3)c2n1 [Example 104]
4 | ≥ 1000 nM | 100 to 1000 nM | < 100 nM | 100 to 1000 nM | COc1ccc(-n2nc3ccc(OCC(F)F)nc3c(-c3ccc(OC(F)F)cc3)c2=O)cc1 [Example 105]
5 | 100 to 1000 nM | < 100 nM | < 100 nM | < 100 nM | COc1ccc(-c2c(=O)n(-c3ccc4nn(C)cc4c3)nc3ccc(OCC(F)F)nc23)cc1 [Example 106]
6 |  |  | 100 to 1000 nM |  | COc1ccc(-n2nc3ccc(OCC(F)(F)F)nc3c(-c3ccc(Cl)cc3)c2=O)cc1 [Example 118]
7 |  |  | 100 to 1000 nM |  | Cn1cc2cc(-n3nc4ccc(N5CCC5)nc4c(-c4ccc(OC(F)F)cc4)c3=O)ccc2n1 [Example 164]
8 |  |  | 1000 to 10000 nM |  | N#Cc1ccc(-n2nc3ccc(OCC(F)F)nc3c(-c3ccc(OC(F)F)cc3)c2=O)cc1 [Example 181]
9 |  |  | 100 to 1000 nM |  | CNc1ccc(-n2nc3ccc(OCC(F)F)nc3c(-c3ccc(OC(F)F)cc3)c2=O)cc1 [Example 185]
10 |  |  | 100 to 1000 nM |  | O=c1c(-c2ccc(OC(F)F)cc2)c2nc(OCC(F)F)ccc2nn1-c1cncs1 [Example 186]
11 |  |  | 1000 to 10000 nM |  | O=c1c(-c2ccc(OC(F)F)cc2)c2nc(OCC(F)F)ccc2nn1-c1ccc(Cl)cc1 [Example 190]
12 |  |  | < 100 nM |  | CN(C)c1ccc2nn(-c3ccc4nn(C)c(N(C)C)c4c3)c(=O)c(-c3ccc(OC(F)F)cc3)c2n1 [Example 204, 4-(4-(difluoromethoxy)phenyl)-6-(dimethylamino)-2-(3-(dimethylamino)-2-methyl-2H-indazol-5-yl)pyrido[3,2-c]pyridazin-3(2H)-one]
13 |  |  | 100 to 1000 nM |  | O=C1CCC(n2nc3ccc(OCC(F)F)nc3c(-c3ccc(OC(F)F)cc3)c2=O)CC1 [Example 216, 6-(2,2-difluoroethoxy)-4-(4-(difluoromethoxy)phenyl)-2-(4-oxocyclohexyl)pyrido[3,2-c]pyridazin-3(2H)-one]
14 |  |  | < 100 nM |  | Cc1ccc(-c2c(=O)n(-c3ccc4nn(C)cc4c3)nc3ccc(NC4CC4)nc23)cn1 [Example 306]
15 |  |  | < 100 nM |  | COc1ccc(-c2c(=O)n(-c3ccc4nn(C)cc4c3)nc3ccc(NC4CC4)nc23)cn1 [Example 308]
16 |  |  | < 100 nM |  | CCNc1ccc2nn(-c3ccc4ncsc4c3)c(=O)c(-c3ccc(C4CC4)cc3)c2n1 [Example 311]
17 |  |  | < 100 nM |  | CCNc1ccc2nn(-c3ccc4nn(C)cc4c3)c(=O)c(-c3ccc(C4CC4)cc3)c2n1 [Example 312]
18 |  |  | < 100 nM |  | Cn1cc2cc(-n3nc4ccc(OCC5CC5(F)F)nc4c(-c4ccc(C5CC5)nc4)c3=O)ccc2n1 (stereo not drawn) [Example 314]
19 |  |  | < 100 nM |  | [2H]C([2H])([2H])c1ccc(-c2c(=O)n(-c3ccc4nn(C)cc4c3)nc3ccc(NCC)nc23)cn1 [Example 320]
20 |  |  | < 100 nM |  | [2H]C([2H])([2H])Oc1ccc(-n2nc3ccc(NCC(F)(F)F)nc3c(-c3ccc(C(F)F)nc3)c2=O)cc1 [Example 322, 4-(6-(difluoromethyl)pyridin-3-yl)-2-(4-(methoxy-d3)phenyl)-6-((2,2,2-trifluoroethyl)amino)pyrido[3,2-c]pyridazin-3(2H)-one]
21 |  |  | < 100 nM |  | [2H]C([2H])([2H])C([2H])([2H])Nc1ccc2nn(-c3ccc4nn(C)cc4c3)c(=O)c(-c3ccc(C(F)F)nc3)c2n1 [Example 324]
22 |  |  | < 100 nM |  | [2H]C([2H])([2H])n1cc2cc(-n3nc4ccc(NC([2H])([2H])C([2H])([2H])[2H])nc4c(-c4ccc(C)nc4)c3=O)ccc2n1 [Example 325]
23 |  |  | < 100 nM |  | CCNc1ccc2nn(-c3ccc(=O)n(C)c3)c(=O)c(-c3ccc(C(F)F)nc3)c2n1 [Example 326]
24 |  |  | 100 to 1000 nM |  | Cn1cc(-n2nc3ccc(OCC(F)F)nc3c(-c3ccc(C(F)F)nc3)c2=O)ccc1=O [Example 328]
25 |  |  | 100 to 1000 nM |  | Cn1cc(-n2nc3ccc(NCC(F)(F)F)nc3c(-c3ccc(C(F)F)nc3)c2=O)ccc1=O [Example 329]
26 |  |  | < 100 nM |  | [2H]C([2H])([2H])n1cc2cc(-n3nc4ccc(NCC)nc4c(-c4ccc(C)nc4)c3=O)ccc2n1 [Example 330]
27 |  |  | < 100 nM |  | CCNc1ccc2nn(-c3ccc4nn(C)cc4c3)c(=O)c(-c3ccc4[nH]cc(C#N)c4c3)c2n1 [Example 332, 5-(6-(ethylamino)-2-(2-methyl-2H-indazol-5-yl)-3-oxo-2,3-dihydropyrido[3,2-c]pyridazin-4-yl)-1H-indole-3-carbonitrile]

Row | Compound | IC50 (HCT116 MTAP+/+) | IC50 [1] | IC50 (MAT2A homodimer) | IC50 (HCT116 MTAP−/−)
28 | Cn1cc2cc(-n3nc4ccc(OCC(F)F)nc4c(C#C[Si](C)(C)C)c3=O)ccc2n1 [Example 213, 6-(2,2-difluoroethoxy)-2-(2-methyl-2H-indazol-5-yl)-4-((trimethylsilyl)ethynyl)pyrido[3,2-c]pyridazin-3(2H)-one] | ≥ 1000 nM |  | 100 to 1000 nM | ≥ 1000 nM
